From patent EP0216105A1, “Diazaphosphorines, process for their preparation and their use as pesticide” (priority 1985, dated 1987)

Legend:
Haemonchus contortus = experiment: In vivo nematode test, infected sheep (egg count in faeces); parameters: species or system Schafe; conditions: sheep infected with normally sensitive or benzimidazole-resistant Haemonchus contortus, oral, pure active substance in gelatin capsules, worm egg count before and after treatment; for minimal effective dose: read-out: Dosis effectiva
Source text: Haemonchus contortus 1 Schaf
Experimentell mit normal empfindlichen bzw. mit gegen Benzimidazol-Anthelmintika resistenten Haemonchus contortus infizierte Schafe wurden nach Ablauf der Präpatenzzeit des Parasiten behandelt. Die Wirkstoffe wurden als reiner Wirkstoff in Gelatinkapseln oral appliziert.
Der Wirkungsgrad wird dadurch bestimmt, daß man die mit dem Kot ausgeschiedenen Wurmeier vor und nach der Behandlung quantitativ auszählt.
Ein völliges Sistieren der Eiausscheidung nach der Behandlung bedeutet, daß die Würmer abgetrieben wurden oder so geschädigt sind, daß sie keine Eier mehr produzieren.

Caenorhabditis elegans = experiment: In vitro nematode test; conditions: Caenorhabditis elegans, 168 h, concentration at which reproduction is prevented; 7 days at 22°C; read-out: Dosis effectiva
Method: 10-^4 g Wirkstoff wurden in 1 ml Wasser oder 0,1 ml Dimethylsulfoxid (DMSO) gelöst. Diese Lösung wurde auf eine Replica-Platte gegeben. Dazu wurden 2 ml einer E-coli-Suspension gegeben, in der man 10-20 weibliche Tiere oder Larven von Caenorhabditis elegans in 0,5 ml M9 Pufferlösung gegeben hat. Die E-coli-Suspension wurde hergestellt indem man 300 ml einer Ubernachthalter eines Uracil-bedürftigen E-coli-Stammes mit 1,8 1 steriler M 9 Pufferlösung versetzte.
Der Versuchsansatz wurde 7 Tage bei 22°C inkubiert und danach ausgewertet. Es wurde bewertet inwieweit der Wirkstoff die Vermehrung beeinträchtigt und die Konzentration angegeben bei der die Vermehrung verhindert wird.

Strongyloides ratti = experiment: In vivo nematode test, infected rats; parameters: species or system Ratten; conditions: dose at which 95% of the parasites were killed, oral by gavage on three consecutive days from day 7 after infection; for ED95: Strongyloides ratti, killed day 13, read-out: effektive Dosis
Source text: Experimentell mit Strongyloides ratti infizierte Ratten werden 7 Tage nach der Infektion an drei aufeinanderfolgenden Tagen oral mittels Schlundsonde behandelt. Die Tiere werden 13 Tage nach der Infektion getötet und die Zahl der Parasiten bestimmt. Es wird die […] angegeben, bei der 95% der Parasiten abgetötet wurden (effektive Dosis): […]

[1] = system: Raupe (L5) der Art Spodoptera frugiperda; experiment: Spodoptera test (treated artificial diet discs); type: in vivo; conditions: Spodoptera frugiperda caterpillars (L5) on treated artificial diet; compared with the prior art; figures not given
Source text: (§1) • Lösungsmittel: 3 Gewichtsteile Aceton • Emulgator: 1 Gewichtsteil Alkylarylpolyglykolether
Zur Herstellung einer zweckmäßigen Wirkstoffzubereitung vermischt man 1 Gewichtsteil Wirkstoff mit der angegebenen Menge Lösungsmittel und der angegebenen Menge Emulgator und verdünnt das Konzentrat mit Wasser auf die gewünschte Konzentrationen.
Kunstfutterscheiben, die in Plastikdosen liegen, werden durch Beträufeln mit der Wirkstoffzubereitung der gewünschten Konzentration behandelt. Nach Eindringen der Lösung besetzt man die Plastikdosen mit je 1 Raupe (L5) der Art Spodoptera frugiperda, wobei je Versuchsglied 5 Wiederholungen aufgestellt werden. Nach der Verpuppung legt man die Tiere eines Versuchsglieds in eine größere Dose. Nach der gewünschten Zeit wird die Abtötung in % bestimmt. Dabei bedeutet 100 X, daß alle Tiere abgetötet wurden; 0 X bedeutet, daß keine Tiere abgetötet wurden.

[2] = system: Mückenlarven (L4) (Aedes aegypti); experiment: Aedes test (larvae in aqueous preparation); type: in vivo; conditions: 20 Aedes aegypti larvae (L4) per glass; compared with the prior art; figures not given
Source text: • Löcungcmittal: 3 Gewichtsteile Aceton • Emulgator: 1 Gewichtsteil Alkylarylpolyglykolether
Zur Herstellung einer zweckmäßigen Wirkstoffzubereitung vermischt man 1 Gawichtcteil Wirkstoff mit der angegebenen Menge Löcungcmittel und der angegebenen Menge Emulgator und verdünnt das Konzentrat mit Wasser auf die gewünschte Konzentrationen.
Man füllt die wässrigen Wirkctoffzubereitungen in Gläser und setzt anschließend 20 Mückenlarven (L4) (Aedes aegypti) in jedes Glas ein.
Nach der gewünschten Zeit wird die Abtötung in % bestimmt. Dabei bedeutet 100 X, daß alle Tiere abgetötet wurden; 0 % bedeutet, daß keine Tiere abgetötet wurden.

[3] = system: Musca domestica-tmultiresistent) Maden; experiment: Fly maggot development inhibition test; type: in vivo; conditions: Musca domestica maggots on treated filter paper, 14 days; compared with the prior art; figures not given
Method: Fliegenmaden-Entwicklungshommungstest Testtiere: Musca domestica-tmultiresistent) Maden Lösungsmittel: Aceton
2 Gewichtsteile Wirkstoff werden in 1 000 Volumenteilen Lösungsmittel aufgenommen. Die so erhaltene Lösung wird mit weiteren Lösungsmitteln auf die gewünschten Konzentrationen verdünnt.
2,5 ml Wirkstofflösung werden in eine Petrischale pipettiert. Auf dem Boden der Petrischale befindet sich ein Filterpapier mit einem Durchmesser von etwa 9,5 cm. Die Petrischale bleibt so lange offen stehen, bis das Lösungsmittel vollständig verdunstet ist. Je nach Konzentration der Wirkstofflösung ist die Menge Wirkstoff pro m^2 Filterpapier verschieden hoch. Anschließend gibt man etwa 25 Testtiere in die Petrischale und bedeckt sie mit einem Glasdeckel.
14 Tage nach Ansetzen der Versuche wird die Zahl der geschlüpften Fliegen kontrolliert. Bestimmt wird der X-Satz der Schlüpfhemmung im Vergleich zur unbehandelten Kontrolle.

Hymenolepis nana = experiment: In vivo nematode test, infected mice; parameters: species or system Mäuse; conditions: Rodentolepis nana, dose at which 95% of the parasites were killed, oral by gavage on four consecutive days from day 10 after infection, killed day 17, read-out: effektive Dosis
Source text: Experimentell mit Hymenolepis nana infizierte Mäuse werden 10 Tage nach der Infektion an vier aufeinanderfolgenden Tagen oral mittels Schlundsonde behandelt. Die Tiere werden 17 Tage nach Infektion getötet und die Zahl der Parasiten bestimmt. Es wird die Wirkstoffkonzentration angegeben, bei der 95% der Parasiten abgetötet wurden (effektive Dosis): […]

Heterakis spumosa = experiment: In vivo nematode test, infected mice; parameters: species or system Mäuse; conditions: Ganguleterakis spumosa, dose at which 95% of the parasites were killed, oral by gavage on four consecutive days from day 32 after infection, killed day 39, read-out: effektive Dosis
Source text: Experimentell mit Heterakis spumosa infizierte Mäuse werden 32 Tage nach der Infektion an vier aufeinanderfolgenden Tage oral mittels Schlundsonde behandelt. Die Tiere werden 39 Tage nach der Infektion getötet und die Zahl der Parasiten bestimmt. Es wird die Wirkstoffkonzentration angegeben bei der 95% der Parasiten abgetötet wurden (effektive Dosis): […]

[4] = system: Larven (L3) des Meerrettichkäfers (Phaedon cochleariae); experiment: Phaedon larvae test (treated cabbage leaves); type: in vivo; conditions: Phaedon cochleariae larvae (L3) on treated Brassica oleracea leaves; compared with the prior art; figures not given
Source text: as §1
Zur Herstellung einer zweckmäßigen Wirkstoffzubereitung vermischt man 1 Gewichtsteil Wirkstoff mit der angegebenen Menge Lösungsmittel und der angegebenen Menge Emulgator und verdünnt das.Konzentrat mit Wasser auf die gewünschte Konzentration.
Kohlpflanzen (Brassica oleracea) werden mit der Wirkstoffzubereitung der gewünschten Konzentration behandelt. Ein Blatt der behandelten Pflanze wird in eine Plastikdose gelegt und mit Larven (L3) des Meerrettichkäfers (Phaedon cochleariae) besetzt. Nach 2 und 4 Tagen wird jeweils ein weiters Blatt von derselben Pflanze für die Nachfütterung verwendet.
Nach der gewünschten Zeit wird die Abtötung in % bestimmt. Dabei bedeutet 100 X, daß alle Käferlarven abgetötet wurden.

[5] = system: Lucilia cuprina res.-Larven; experiment: Test with resistant Lucilia cuprina larvae; type: in vivo; conditions: horse meat, after 24 hours, compared with the prior art, figures not given
Source text: Test mit Lucilia cuprina resistent-Larven
• Emulgator: 35 Gewichtsteile Ethylenglykolmonomethylether • 35 Gewichtsteile Nonylphenolpolyglykolether
Zur Herstellung einer zweckmäßigen Wirkstoffzubereitung vermischt man drei Gewichtsteile Wirkstoff mit sieben Gewichtsteilen des oben angegebenen Gemisches und verdünnt das so erhaltene Konzentrat mit Wasser auf die jeweils gewünschte Konzentration.
Etwa 20 Lucilia cuprina res.-Larven werden in ein Teströhrchen gebracht, welches ca. 1 cm^3 Pferdefleisch und O,5 ml der Wirkstoffzubereitung enthält. Nach 24 Stunden wird der Abtötungsgrad bestimmt.

Row | SMILES | minimal effective dose (Haemonchus contortus) [mg/kg] | minimal effective concentration (Caenorhabditis elegans) [µg/mL] | ED95 (Strongyloides ratti) [mg/kg] | Abtötung in % [1] | Abtötung in % [2] | X-Satz der Schlüpfhemmung im Vergleich zur unbehandelten Kontrolle [3] | ED95 (Hymenolepis nana) [mg/kg] | ED95 (Heterakis spumosa) [mg/kg] | Abtötung in % [4] | Abtötungsgrad [5] | Dosis effectiva (Haemonchus contortus) [mg/kg] | effektive Dosis (Strongyloides ratti; killed day 13) [mg/kg]
1 | CN1C(=O)C(C(=O)Nc2ccc(Oc3ccc(C(F)(F)F)cc3)cc2)C(=O)N(C)P1(=O)Oc1ccc(Cl)cc1 (stereo not shown) [Beispiel 3] | 50 |  |  |  |  |  |  |  |  |  |  | 
2 | CN1C(=O)C(C(=O)Nc2ccc(OC(F)(F)F)cc2)C(=O)N(C)P1(=S)Oc1ccccc1 (stereo not shown) [Beispiel 7] | 50 | 10 | 50 | überlegene Wirksamkeit gegenüber dem Stand der Technik | überlegene Wirksamkeit gegenüber dem Stand der Technik | überlegene Wirksamkeit gegenüber dem Stand der Technik |  |  |  |  |  | 
3 | CN1C(=O)C(C(=O)Nc2ccc(Cl)c(C(F)(F)F)c2)C(=O)N(C)P1(=O)Oc1ccc(Cl)cc1 (stereo not shown) [Beispiel 9] | 25 | 10 | 25 | überlegene Wirksamkeit gegenüber dem Stand der Technik | überlegene Wirksamkeit gegenüber dem Stand der Technik |  | 50 | 25 |  |  |  | 
4 | CN1C(=O)C(C(=O)Nc2ccc(Cl)c(C(F)(F)F)c2)C(=O)N(C)P1(=O)Oc1ccccc1 (stereo not shown) [Beispiel 12] |  | 10 | 100 |  | überlegene Wirksamkeit gegenüber dem Stand der Technik |  |  | 25 | überlegene Wirksamkeit gegenüber dem Stand der Technik |  |  | 
5 | CN1C(=O)C(C(=O)Nc2ccc(SC(F)(F)F)cc2)C(=O)N(C)P1(=O)Oc1ccc(Cl)cc1 (stereo not shown) [Beispiel 24] | 10 | 10 | 10 | überlegene Wirksamkeit gegenüber dem Stand der Technik |  | überlegene Wirksamkeit gegenüber dem Stand der Technik |  |  |  | überlegene Wirkung gegenüber dem Stand der Technik |  | 
6 | CN1C(=O)C(C(=O)Nc2ccc(Cl)c(C(F)(F)F)c2)C(=O)N(C)P1(=O)Oc1ccc(Cl)cc1 (stereo not shown) [Beispiel 25] |  |  |  |  |  | überlegene Wirksamkeit gegenüber dem Stand der Technik |  |  | überlegene Wirksamkeit gegenüber dem Stand der Technik | überlegene Wirkung gegenüber dem Stand der Technik | 25 | 25
7 | CCN1C(=O)C(C(=O)Nc2ccc(Oc3cccc(C(F)(F)F)c3)cc2)C(=O)N(C)P1(=O)Oc1cccc(Cl)c1 (stereo not shown) [Beispiel 47] | 10 |  |  |  |  |  |  |  |  |  |  | 
